From PubChem BioAssay AID1996 come the findings set out here.

In brackets after ≈: the same amount, converted by molar mass.

As usually defined, the kinetic solubility is solubility judged after dilution from a stock solution rather than from solid.

For the series the following is noted: buffer; pH 7.4; 200.0 µM.
Compound `COC(=O)CN1C(=O)N/C(=C/c2ccc(OC)c(C)c2OC)C1=O` displayed a kinetic solubility of 4 µg/mL (≈ 12 µM).
The value for `O=C(NCc1ccccc1CN1CCCC1)c1cc2ccccc2o1` was > 50.2 µg/mL; that for `O=C(NCCCN1CCCC1)Nc1ccc(F)cc1` was 35.2 µg/mL (≈ 133 µM); that for `N=c1c2ccccc2nc2n1CCCCCCCCCCC2` was 34.6 µg/mL (≈ 116 µM).
The value for `COc1cc(C(=O)NCCNC(=O)c2ccc(C)nc2)cc(OC)c1OC` was 52.6 µg/mL (≈ 141 µM); that for `COC1=C(Nc2ccccc2OC)C(=O)c2ccccc2C1=O` was 17.2 µg/mL (≈ 55.6 µM); that for `O=[N+]([O-])c1cncc([N+](=O)[O-])c1Nc1cccc(O)c1` was > 41.4 µg/mL.
In the case of `NC(=O)CSc1nc2cccnc2n1-c1ccc(F)cc1`, the kinetic solubility came out at 45.2 µg/mL (≈ 150 µM).
`O=C(c1cc(N2CCOCC2)c(F)cc1[N+](=O)[O-])N1CCOCC1` yielded a kinetic solubility of 48 µg/mL (≈ 141 µM).
Consider `Cc1cccc(N2CCN(Cc3nc(C4CC4)no3)CC2)n1`, for which the solubility (kinetic) was 37.8 µg/mL (≈ 126 µM).
Turning to `Cc1cc(NC(=O)CSc2nc3ccccc3cc2C#N)no1`, the solubility (kinetic) was 2.9 µg/mL (≈ 8.94 µM).
As to `Cc1ncc([N+](=O)[O-])n1Cc1ccccc1F`, the kinetic solubility is > 35.3 µg/mL.
The figure for `CC(Sc1ccccc1F)C(=O)Nc1cccc(S(=O)(=O)N2CCOCC2)c1` (configuration not stated) is > 63.7 µg/mL; for `O=S(=O)([O-])CCC[N+]1(CC#Cc2ccccc2)CCCCC1` it is > 48.2 µg/mL; for `CN1CCN(NC(=O)c2ccc(Cl)s2)CC1` it is > 39 µg/mL.
As for `C=CCOc1ccc(CNCc2cccnc2)cc1.Cl`, the kinetic solubility is > 43.6 µg/mL.
The figure for `CC1(C)C2CCC(C2)C1(C)NC(=O)C[N+](C)(C)C.[Cl-]` (configuration not stated) is 43.2 µg/mL; for `CN(Cc1ccc(C(F)(F)F)cc1)C(=O)C1CC(=O)N(Cc2ccco2)C1` (configuration not stated) it is 51.8 µg/mL (≈ 136 µM); for `CCc1ccc(OCC(=O)Nc2ccncc2)cc1` it is > 38.4 µg/mL.
The value for `O=C(O)CN1C(=O)/C(=C/c2ccc(SCc3ccccc3)o2)SC1=S` was 21.2 µg/mL (≈ 54.2 µM); that for `COC(=O)c1ccc(Cn2cnc3cnccc32)cc1` was 29.9 µg/mL (≈ 112 µM).
With `Cc1ccc(Nc2ccc(C(=O)O)cc2[N+](=O)[O-])cc1`, the kinetic solubility is > 40.8 µg/mL.
In the case of `Cc1cc(C)c(N=Cc2c(O)c3ccccc3oc2=O)c(C)c1`, the kinetic solubility is < 0.7 µg/mL.
The value for `CC1(c2ccc(NC(=O)c3ccccc3F)cc2)CC1(Cl)Cl` (configuration not stated) was < 0.7 µg/mL; that for `CN1CCN(C(=O)/C=C/c2ccc(C#N)cc2)CC1` was > 38.3 µg/mL.
`COc1cccc(C(=O)NCCCNC(=O)c2cccc(OC)c2)c1`: the solubility (kinetic) is > 51.4 µg/mL.
In turn, `CCOc1ccc(CSCCNC(=S)Nc2ccc(OC)cc2)cc1` gave a solubility (kinetic) of 1.1 µg/mL (≈ 2.92 µM).
Compound `CCc1ccc(S(=O)(=O)NC2CC(C)(C)NC(C)(C)C2)cc1` returned a kinetic solubility of 35.8 µg/mL (≈ 110 µM).
The figure for `Cc1ccc(OCc2ccccc2C)c([N+](=O)[O-])n1` is 18.4 µg/mL (≈ 71.2 µM); for `Cc1ccc(C(C)C)c(OCC(O)CNC2CCCC2)c1.Cl` (configuration not stated) it is > 49.2 µg/mL; for `CC(O)Cn1cnc2c1c(=O)n(C)c(=O)n2C` (configuration not stated) it is > 35.7 µg/mL.
Take `CCCCCOc1ccc(C(=O)CCC(=O)N2CCCC2)cc1`: the kinetic solubility is > 47.6 µg/mL.
Regarding `O=c1ccc(S(=O)(=O)N2CCCC2)c[nH]1`, the solubility (kinetic) was > 34.2 µg/mL.
The figure for `Cc1ccc(S(=O)(=O)NCC(=O)OCC(=O)NCc2ccco2)cc1` is > 55 µg/mL.
The figure for `Cc1oc(S(=O)(=O)N(C)C)cc1C(=O)Nc1ccc(F)cc1` is 2.3 µg/mL (≈ 7.05 µM).
The figure for `COc1ccc2nc(Cl)cc(Cl)c2c1` is 0.9 µg/mL (≈ 3.95 µM).
Regarding `CN(C1CCCCC1)S(=O)(=O)c1ccc2[nH]c(=O)oc2c1`, the kinetic solubility is > 46.6 µg/mL.
The figure for `O=C(O)CSc1nc2sc3c(c2c(=O)n1-c1ccccc1)CCC3` is > 53.8 µg/mL.
Compound `Cc1ccccc1S(=O)(=O)/N=C(/c1ccccc1)N(C)C` came in with a solubility (kinetic) of 44.9 µg/mL (≈ 148 µM).
Take `CCC(=O)c1ccc(OCC(=O)Nc2ccccc2N2CCCCC2)cc1`: the solubility (kinetic) is < 0.4 µg/mL.
For `CCCC/C(O)=C1\C(=O)CCCC1=NCCc1c(C)[nH]c2ccccc12`, the solubility (kinetic) stood at 14.3 µg/mL (≈ 40.6 µM).
The value for `Cc1cc(C)cc(NC(=O)COC(=O)COc2ccc(N(C)S(=O)(=O)c3cccs3)cc2)c1` was 9.1 µg/mL (≈ 18.6 µM); that for `COc1cccc(CC(=O)NCC2(N3CCCCC3)CCCCC2)c1` was > 51.7 µg/mL; that for `O=S(=O)(NC1CC2CCC1C2)c1ccc(Br)cc1` (configuration not stated) was 13.9 µg/mL (≈ 42.1 µM).
For `CC(C)CCn1c(N2CCCC2)nc2c1c(=O)n(C)c(=O)n2C`, the kinetic solubility was 46.6 µg/mL (≈ 146 µM).
Consider `Cn1c(N)c(C(=O)CSc2nnc3n2CCCCC3)c(=O)n(C)c1=O`, for which the solubility (kinetic) is > 54.7 µg/mL.
The figure for `COc1ccc2oc(=N)c(C(=O)Nc3ccc(Cl)cc3)cc2c1` is < 0.4 µg/mL.
The compound `COc1ccc(C(C)=O)cc1CSc1ccccn1` yielded a kinetic solubility of 37.7 µg/mL (≈ 138 µM).
With `COC(=O)c1c(-c2ccccc2)c[nH]c1C`, the solubility (kinetic) is 32 µg/mL (≈ 149 µM).
Compound `Cc1onc(-c2ccccc2Cl)c1C(=O)Nc1ccccc1O` yielded a kinetic solubility of 17.2 µg/mL (≈ 52.3 µM). This solubility kinetic lies about 1.9-fold lower than the previous one.
The figure for `COc1ccc2c(c1)C(=O)N(c1ccc(C)cc1C)C(=O)C2(C)C` is 5.3 µg/mL (≈ 16.4 µM); for `Cn1c(CCNC(=O)c2ccco2)nc2cc([N+](=O)[O-])ccc21` it is 43.1 µg/mL (≈ 137 µM); for `Cc1ccc(S(=O)(=O)NCCC(=O)NC2CCCCC2)cc1` it is > 48.7 µg/mL.
The figure for `CC(C)CCN1CCN(Cc2cc3ccccc3[nH]2)CC1CCO` (configuration not stated) is 39.3 µg/mL (≈ 119 µM).
For `CC(C)(CO)NC(=S)NCc1ccco1`, the kinetic solubility is > 34.2 µg/mL.
The figure for `Fc1ccc(CN2CCCN(C(=S)Nc3ccc(F)cc3)CC2)cc1` is > 54.2 µg/mL; for `O=C(NCc1ccccc1)C1CC(=O)N(C2CCCCC2)C1` (configuration not stated) it is > 45.1 µg/mL; for `Cc1ccc(S(=O)(=O)N2CCOCC2)cc1NC(=O)COC(=O)C1(C)CC1(Cl)Cl` (configuration not stated) it is > 69.8 µg/mL.
The figure for `Cc1cccc(NC(=S)N2CCN(S(C)(=O)=O)CC2)c1` is > 47 µg/mL.
As for `O=S(=O)(NCCc1ccccc1)c1cccs1`, the kinetic solubility amounted to 34 µg/mL (≈ 127 µM).
The figure for `O=C(NCCN1CCCCC1)c1cc(Cl)ccc1Cl` is 39.8 µg/mL (≈ 132 µM); for `O=C(NCc1csc(-c2cccs2)n1)Nc1cccc(Cl)c1` it is 0.3 µg/mL (≈ 0.857 µM); for `Nc1nc(Nc2ccccc2F)nc(NCCO)c1[N+](=O)[O-]` it is 45.8 µg/mL (≈ 149 µM).
The figure for `O=C(Nc1nc2ccccc2[nH]1)c1cc2ccccc2o1` is 2.1 µg/mL (≈ 7.57 µM); for `Cc1ccc(COC(=O)NCc2cccnc2)cc1` it is 35.7 µg/mL (≈ 139 µM); for `CCc1ccccc1NC(=O)CN(C)C(=O)COC(=O)c1cccnc1Cl` it is > 58.5 µg/mL.
The value for `O=C(NCCc1ccc(F)cc1)c1cccc(NC(=O)c2ccccc2)c1` was 6 µg/mL (≈ 16.6 µM); that for `O=C(O)CCN1C(=O)S/C(=C\c2cccnc2)C1=O` was > 41.7 µg/mL; that for `Cc1ccc(OS(=O)(=O)c2ccc(N3C(=O)CCC3=O)cc2)cc1` was 18.3 µg/mL (≈ 53 µM).
`O=C(Nc1ccc(Cl)c(NC(=O)c2cccs2)c1)c1ccco1` gave a solubility (kinetic) of 37.4 µg/mL (≈ 108 µM).
In turn, `O=C(NC1CCCc2ccccc21)c1ccccc1OC(F)F` (configuration not stated) registered a kinetic solubility of 15.5 µg/mL (≈ 48.8 µM).
In the case of `COc1ccc(S(=O)(=O)Nc2cc(C)on2)cc1NC(C)=O`, the kinetic solubility was > 48.8 µg/mL.
Consider `c1ccc(-c2cc(NCCN3CCCCC3)c3ccccc3n2)cc1`, for which the kinetic solubility is > 49.7 µg/mL.
The value for `Cc1ccc(NC(=O)C2CCCN(c3cnccn3)C2)c(C)c1` (configuration not stated) was > 46.6 µg/mL; that for `N#CCCN(C(=O)COC(=O)c1ccc(S(=O)(=O)N2CCOCC2)cc1)c1ccccc1` was 8.2 µg/mL (≈ 17.9 µM).
The figure for `CN1CCN(C(=O)C23CC4CC(C)(CC(C)(C4)C2)C3)CC1.Cl` is 47.8 µg/mL; for `COc1cccc(C(=O)Nc2cccc(-c3ccccc3)c2)c1` it is 2.5 µg/mL (≈ 8.24 µM); for `CCOC(=O)c1cc2c(ccn2C)n1CC(=O)N(CC)CC` it is > 45.8 µg/mL.
The figure for `CCC(=O)Nc1cccc(C(=O)c2ccc(C)c(C)c2)c1` is 28 µg/mL (≈ 99.5 µM).
`O=C(Nc1ccc2ccccc2c1)c1ccc2[nH]c(=O)c(=O)[nH]c2c1` displayed a solubility (kinetic) of 4.3 µg/mL (≈ 13 µM).
The value for `Cc1ccc2c(CN3CC(C)CC(C)C3)cc(=O)oc2c1` (configuration not stated) was 4.3 µg/mL (≈ 15.1 µM); that for `COc1ccc(NC(=O)CCCC(=O)O)cc1Cl` was > 40.8 µg/mL; that for `O=[N+]([O-])c1ccccc1OCCN1CCCC1` was 25.5 µg/mL (≈ 108 µM).
The value for `CSC1=NCCN1C(=O)c1c(-c2c(F)cccc2Cl)noc1C` was > 53.1 µg/mL; that for `CCOc1ccc(NC(=O)c2ccccc2NC(=O)CNC2CCCC(C)C2C)cc1` (configuration not stated) was 2.2 µg/mL (≈ 5.19 µM).
The figure for `CC1CCCC(C)N1C(=O)COc1ccc([N+](=O)[O-])cc1Cl` (configuration not stated) is > 49 µg/mL.
`Cc1ccc(S(=O)(=O)Nc2csc(C)c2C(=O)O)cc1`: the kinetic solubility was > 46.7 µg/mL.
The value for `Cc1cccc(C)c1NC(=O)[C@@]1(CC(=O)O)CC(/C=C/c2ccccc2)=NO1` was > 56.8 µg/mL; that for `COCCNC(=O)Cn1nc(-c2ccc(C)cc2)ccc1=O` was > 45.2 µg/mL; that for `Cc1ccccc1C(=O)Nc1ccc2c(c1)OCCO2` was > 40.4 µg/mL.
The value for `CC(C)(Oc1ccc(Cl)cc1)C(=O)NC1CC1` was > 38.1 µg/mL; that for `COc1ccccc1NS(=O)(=O)c1cc(NC(=O)COc2ccccc2)ccc1N1CCOCC1` was 8.1 µg/mL (≈ 16.3 µM); that for `C/C(=C\c1cccs1)C(=O)c1c(C)cc(C)[nH]c1=O` was > 41 µg/mL.
The value for `CCC(CO)NCC#Cc1ccccc1.Cl` (configuration not stated) was > 36 µg/mL; that for `Cc1ccc(C(=O)Cn2cncn2)cc1.Cl` was > 35.7 µg/mL; that for `CCOC(=O)C1CCN(C(=O)c2cc3cc(C)ccc3[nH]2)CC1` was 37 µg/mL (≈ 118 µM).
In the case of `Nc1nc2ccccc2n1CCOc1ccc(Br)cc1`, the kinetic solubility turned out to be 27.2 µg/mL (≈ 81.9 µM).
The value for `CCCCCC(=O)O/N=C(\C)c1ccn(S(=O)(=O)c2ccccc2)c1` was 1.3 µg/mL (≈ 3.59 µM); that for `CCOC(=O)Cc1csc(NC(=O)CSc2nc(C)cc(C)n2)n1` was > 55 µg/mL.
The value for `O=c1oc(-c2cccc([N+](=O)[O-])c2)nc2ccccc12` was 3.2 µg/mL (≈ 11.9 µM); that for `Cc1cc(=O)oc(C)c1C(=O)Nc1ccc(F)cc1` was > 39.2 µg/mL.
With `CCOC(=O)c1[nH]cnc1C(=O)Nc1cccc(OC)c1`, the solubility (kinetic) worked out at 4.4 µg/mL (≈ 15.2 µM).
